# Data taken from patent US12214092B2, “Systems and methods for treating biological fluids” (Cerus Corporation, priority 2017, dated 2025).
# How the values were obtained:
# E. coli [1] = experiment: Photochemical inactivation of E. coli in human plasma with amotosalen and UVA, colony forming unit assay; assay type: cell-based; details: for E. coli Log Reduction: ~6.4 J/cm^2, n = 2
# E. coli [2] = experiment: Amotosalen and two sequential UV light doses (UVC + UVA) treatment of E. coli in plasma, colony forming unit assay; assay type: cell-based; details: 15 μM amotosalen, titer pre-UV 6.57; for Titer Post-Second: ~3 J/cm^2 each
# Method: Additionally, any two or more wavelengths of narrow bandwidth light are evaluated in combination, such as for example, photochemical treatment of a biological fluid using amotosalen and ultraviolet light of a first peak wavelength and ultraviolet light of a second peak wavelength, sequentially or concurrently. More specifically, in one example pathogen inactivation of E. coli (Gram negative) and S. epidermidis (Gram positive) bacteria was evaluated using amotosalen and the device with LEDs of wavelengths described in Example 8. […] The spiked plasma units were divided into control (no amotosalen+UV light) and treatment (with amotosalen) conditions, with amotosalen used at 15 μM concentration. The units were aliquoted into six-well plates (5 mL/well) for illumination. Pre-illumination samples were taken and control bacterial titers determined using standard colony forming unit assay. […] Data for pre-illumination titers, post-first illumination titer, post-second illumination titer, and post-treatment (after second illumination) residual amotosalen (S-59) are shown in the following Tables 40-41.
# [3] = Residual post-illumination amotosalen by LED wavelength in bacteria-spiked plasma, HPLC; details: for Pre-UV S-59: pre-illumination
smiles,measurement,setting,value
"Cc1oc2c(C)c3oc(=O)cc(C)c3cc2c1COCCN [S-59, 3-(2-aminoethoxymethyl)-2,5,9-trimethylfuro[3,2-g]chromen-7-one]",Log reduction,"E. coli [1]; 340 nm, 1.5 μM, ~3 J/cm^2",1.3 log
same,Post-UVA titer,"E. coli [1]; 340 nm, 1.5 μM, ~3 J/cm^2",5.0 log cfu/mL
same,Pre-UVA titer,"E. coli [1]; 340 nm, 1.5 μM, ~3 J/cm^2",6.3 log cfu/mL
same,Log reduction,"E. coli [1]; 340 nm, 1.5 μM, ~6 J/cm^2",1.5 log
same,Post-UVA titer,"E. coli [1]; 340 nm, 1.5 μM, ~6 J/cm^2",4.8 log cfu/mL
same,Pre-UVA titer,"E. coli [1]; 340 nm, 1.5 μM, ~6 J/cm^2",6.3 log cfu/mL
same,Log reduction,"E. coli [1]; 340 nm, 1.5 μM, ~9 J/cm^2",1.4 log
same,Post-UVA titer,"E. coli [1]; 340 nm, 1.5 μM, ~9 J/cm^2",4.9 log cfu/mL
same,Pre-UVA titer,"E. coli [1]; 340 nm, 1.5 μM, ~9 J/cm^2",6.3 log cfu/mL
same,Log reduction,"E. coli [1]; 340 nm, 15 μM, ~3 J/cm^2",4.7 log
same,Post-UVA titer,"E. coli [1]; 340 nm, 15 μM, ~3 J/cm^2",1.4 log cfu/mL
same,Pre-UVA titer,"E. coli [1]; 340 nm, 15 μM, ~3 J/cm^2",6.1 log cfu/mL
same,Log reduction,"E. coli [1]; 340 nm, 15 μM, ~6 J/cm^2",5.6 log
same,Post-UVA titer,"E. coli [1]; 340 nm, 15 μM, ~6 J/cm^2",0.5 log cfu/mL
same,Pre-UVA titer,"E. coli [1]; 340 nm, 15 μM, ~6 J/cm^2",6.1 log cfu/mL
same,Log reduction,"E. coli [1]; 340 nm, 15 μM, ~9 J/cm^2",5.6 log
same,Post-UVA titer,"E. coli [1]; 340 nm, 15 μM, ~9 J/cm^2",0.5 log cfu/mL
same,Pre-UVA titer,"E. coli [1]; 340 nm, 15 μM, ~9 J/cm^2",6.1 log cfu/mL
same,Log reduction,"E. coli [1]; 340 nm, 150 μM, ~3 J/cm^2",>7.0 log
same,Post-UVA titer,"E. coli [1]; 340 nm, 150 μM, ~3 J/cm^2",<−0.7 log cfu/mL
same,Pre-UVA titer,"E. coli [1]; 340 nm, 150 μM, ~3 J/cm^2",6.3 log cfu/mL
same,E. coli Log Reduction,"E. coli [1]; 340 nm, 220 mL plasma, 15 μM",6.0 log
same,E. coli Log Reduction,"E. coli [1]; 340 nm, 350 mL plasma, 15 μM",4.6 log
same,Log reduction,"E. coli [1]; INT-100, 15 μM, ~3 J/cm^2",4.2 log
same,Post-UVA titer,"E. coli [1]; INT-100, 15 μM, ~3 J/cm^2",2.0 log cfu/mL
same,Pre-UVA titer,"E. coli [1]; INT-100, 15 μM, ~3 J/cm^2",6.2 log cfu/mL
same,Log reduction,"E. coli [1]; INT-100, 150 μM, ~3 J/cm^2",>7.1 log
same,Post-UVA titer,"E. coli [1]; INT-100, 150 μM, ~3 J/cm^2",<−0.7 log cfu/mL
same,Pre-UVA titer,"E. coli [1]; INT-100, 150 μM, ~3 J/cm^2",6.4 log cfu/mL
same,E. coli Log Reduction,"E. coli [1]; INT-100, 220 mL plasma, 15 μM",5.3 log
same,E. coli Log Reduction,"E. coli [1]; INT-100, 350 mL plasma, 15 μM",4.4 log
same,Titer Post-Second,E. coli [2]; UV 1 265 nm then UV 2 325 nm,<−0.11
same,Titer Post-Second,E. coli [2]; UV 1 265 nm then UV 2 340 nm,<−0.11
same,Titer Post-Second,E. coli [2]; UV 1 265 nm then UV 2 365 nm,<−0.11
same,Titer Post-First,E. coli [2]; UV 1 265 nm ~3 J/cm^2 (then 325 nm),3.58
same,Titer Post-First,E. coli [2]; UV 1 265 nm ~3 J/cm^2 (then 340 nm),3.86
same,Titer Post-First,E. coli [2]; UV 1 265 nm ~3 J/cm^2 (then 365 nm),2.95
same,Titer Post-Second,E. coli [2]; UV 1 280 nm then UV 2 325 nm,<−0.11
same,Titer Post-Second,E. coli [2]; UV 1 280 nm then UV 2 340 nm,<−0.11
same,Titer Post-Second,E. coli [2]; UV 1 280 nm then UV 2 365 nm,<−0.11
same,Titer Post-First,E. coli [2]; UV 1 280 nm ~3 J/cm^2 (then 325 nm),3.66
same,Titer Post-First,E. coli [2]; UV 1 280 nm ~3 J/cm^2 (then 340 nm),4.15
same,Titer Post-First,E. coli [2]; UV 1 280 nm ~3 J/cm^2 (then 365 nm),4.11
same,Titer Post-Second,E. coli [2]; UV 1 325 nm then UV 2 265 nm,<−0.11
same,Titer Post-Second,E. coli [2]; UV 1 325 nm then UV 2 280 nm,<−0.11
same,Titer Post-First,E. coli [2]; UV 1 325 nm ~3 J/cm^2 (then 265 nm),<−0.11
same,Titer Post-First,E. coli [2]; UV 1 325 nm ~3 J/cm^2 (then 280 nm),<−0.11
same,Titer Post-Second,E. coli [2]; UV 1 340 nm then UV 2 265 nm,<−0.11
same,Titer Post-Second,E. coli [2]; UV 1 340 nm then UV 2 280 nm,<−0.11
same,Titer Post-First,E. coli [2]; UV 1 340 nm ~3 J/cm^2 (then 265 nm),<−0.11
same,Titer Post-First,E. coli [2]; UV 1 340 nm ~3 J/cm^2 (then 280 nm),<−0.11
same,Titer Post-Second,E. coli [2]; UV 1 365 nm then UV 2 265 nm,<−0.11
same,Titer Post-Second,E. coli [2]; UV 1 365 nm then UV 2 280 nm,<−0.11
same,Titer Post-First,E. coli [2]; UV 1 365 nm ~3 J/cm^2 (then 265 nm),<−0.11
same,Titer Post-First,E. coli [2]; UV 1 365 nm ~3 J/cm^2 (then 280 nm),<−0.11
same,Pre-UV S-59,"[3]; E. coli plasma, 15 μM arm, 265 nm arm",16.0 µM
same,Post-UV S-59,"[3]; E. coli plasma, 15 μM arm, 265 nm, ~3 J/cm^2",12.7 µM
same,Pre-UV S-59,"[3]; E. coli plasma, 15 μM arm, 280 nm arm",16.2 µM
same,Post-UV S-59,"[3]; E. coli plasma, 15 μM arm, 280 nm, ~3 J/cm^2",12.6 µM
same,Pre-UV S-59,"[3]; E. coli plasma, 15 μM arm, 310 nm arm",15.4 µM
same,Post-UV S-59,"[3]; E. coli plasma, 15 μM arm, 310 nm, ~3 J/cm^2",5.5 µM
same,Pre-UV S-59,"[3]; E. coli plasma, 15 μM arm, 325 nm arm",15.8 µM
same,Post-UV S-59,"[3]; E. coli plasma, 15 μM arm, 325 nm, ~3 J/cm^2",4.0 µM
same,Pre-UV S-59,"[3]; E. coli plasma, 15 μM arm, 340 nm arm",16.0 µM
same,Post-UV S-59,"[3]; E. coli plasma, 15 μM arm, 340 nm, ~3 J/cm^2",3.7 µM
same,Pre-UV S-59,"[3]; E. coli plasma, 15 μM arm, 365 nm arm",16.2 µM
same,Post-UV S-59,"[3]; E. coli plasma, 15 μM arm, 365 nm, ~3 J/cm^2",8.1 µM
same,Pre-UV S-59,"[3]; E. coli plasma, 15 μM arm, 385 nm arm",15.3 µM
same,Post-UV S-59,"[3]; E. coli plasma, 15 μM arm, 385 nm, ~3 J/cm^2",14.3 µM
same,Pre-UV S-59,"[3]; E. coli plasma, 150 μM arm, 265 nm arm",148.9 µM
same,Post-UV S-59,"[3]; E. coli plasma, 150 μM arm, 265 nm, ~3 J/cm^2",115.0 µM
same,Pre-UV S-59,"[3]; E. coli plasma, 150 μM arm, 280 nm arm",152.7 µM
same,Post-UV S-59,"[3]; E. coli plasma, 150 μM arm, 280 nm, ~3 J/cm^2",148.1 µM
same,Pre-UV S-59,"[3]; E. coli plasma, 150 μM arm, 310 nm arm",151.1 µM
same,Post-UV S-59,"[3]; E. coli plasma, 150 μM arm, 310 nm, ~3 J/cm^2",56.8 µM
same,Pre-UV S-59,"[3]; E. coli plasma, 150 μM arm, 325 nm arm",141.6 µM
same,Post-UV S-59,"[3]; E. coli plasma, 150 μM arm, 325 nm, ~3 J/cm^2",52.1 µM
same,Pre-UV S-59,"[3]; E. coli plasma, 150 μM arm, 340 nm arm",142.2 µM
same,Post-UV S-59,"[3]; E. coli plasma, 150 μM arm, 340 nm, ~3 J/cm^2",48.1 µM
same,Pre-UV S-59,"[3]; E. coli plasma, 150 μM arm, 365 nm arm",153.2 µM
same,Post-UV S-59,"[3]; E. coli plasma, 150 μM arm, 365 nm, ~3 J/cm^2",79.8 µM
same,Pre-UV S-59,"[3]; E. coli plasma, 150 μM arm, 385 nm arm",148.4 µM
same,Post-UV S-59,"[3]; E. coli plasma, 150 μM arm, 385 nm, ~3 J/cm^2",135.1 µM
same,Pre-UV S-59,"[3]; P. acnes plasma, 15 μM arm, 265 nm arm",15.7 µM
same,Post-UV S-59,"[3]; P. acnes plasma, 15 μM arm, 265 nm, ~6.4 J/cm^2",10.8 µM
same,Pre-UV S-59,"[3]; P. acnes plasma, 15 μM arm, 280 nm arm",15.7 µM
same,Post-UV S-59,"[3]; P. acnes plasma, 15 μM arm, 280 nm, ~6.4 J/cm^2",16.0 µM
same,Pre-UV S-59,"[3]; P. acnes plasma, 15 μM arm, 310 nm arm",15.7 µM
same,Post-UV S-59,"[3]; P. acnes plasma, 15 μM arm, 310 nm, ~6.4 J/cm^2",2.2 µM
same,Pre-UV S-59,"[3]; P. acnes plasma, 15 μM arm, 325 nm arm",15.7 µM
same,Post-UV S-59,"[3]; P. acnes plasma, 15 μM arm, 325 nm, ~6.4 J/cm^2",1.1 µM
same,Pre-UV S-59,"[3]; P. acnes plasma, 15 μM arm, 340 nm arm",15.7 µM
same,Post-UV S-59,"[3]; P. acnes plasma, 15 μM arm, 340 nm, ~6.4 J/cm^2",1.4 µM
same,Pre-UV S-59,"[3]; P. acnes plasma, 15 μM arm, 365 nm arm",15.7 µM
same,Post-UV S-59,"[3]; P. acnes plasma, 15 μM arm, 365 nm, ~6.4 J/cm^2",5.5 µM
same,Pre-UV S-59,"[3]; P. acnes plasma, 15 μM arm, 385 nm arm",15.7 µM
same,Post-UV S-59,"[3]; P. acnes plasma, 15 μM arm, 385 nm, ~6.4 J/cm^2",13.7 µM
same,Pre-UV S-59,"[3]; S. epidermidis plasma, 15 μM arm, 265 nm arm",14.4 µM
same,Post-UV S-59,"[3]; S. epidermidis plasma, 15 μM arm, 265 nm, ~3 J/cm^2",13.0 µM
same,Pre-UV S-59,"[3]; S. epidermidis plasma, 15 μM arm, 280 nm arm",14.8 µM
same,Post-UV S-59,"[3]; S. epidermidis plasma, 15 μM arm, 280 nm, ~3 J/cm^2",11.8 µM
same,Pre-UV S-59,"[3]; S. epidermidis plasma, 15 μM arm, 310 nm arm",14.3 µM
same,Post-UV S-59,"[3]; S. epidermidis plasma, 15 μM arm, 310 nm, ~3 J/cm^2",5.2 µM
same,Pre-UV S-59,"[3]; S. epidermidis plasma, 15 μM arm, 325 nm arm",14.9 µM
same,Post-UV S-59,"[3]; S. epidermidis plasma, 15 μM arm, 325 nm, ~3 J/cm^2",3.7 µM
same,Pre-UV S-59,"[3]; S. epidermidis plasma, 15 μM arm, 340 nm arm",14.8 µM
same,Post-UV S-59,"[3]; S. epidermidis plasma, 15 μM arm, 340 nm, ~3 J/cm^2",3.6 µM
same,Pre-UV S-59,"[3]; S. epidermidis plasma, 15 μM arm, 365 nm arm",14.8 µM
same,Post-UV S-59,"[3]; S. epidermidis plasma, 15 μM arm, 365 nm, ~3 J/cm^2",7.8 µM
same,Pre-UV S-59,"[3]; S. epidermidis plasma, 15 μM arm, 385 nm arm",15.0 µM
same,Post-UV S-59,"[3]; S. epidermidis plasma, 15 μM arm, 385 nm, ~3 J/cm^2",15.1 µM
same,residual amotosalen,[3]; amotosalen+325 nm and amotosalen+340 nm illumination,less than 5 μM
